Measurements taken from ChEMBL document CHEMBL3407385, “Promiscuous 2-aminothiazoles (PrATs): a frequent hitting scaffold” (J Med Chem, 2015).
Activity calls are given as the source filed them. The calls are words filed in the database; no cut-off is given here.

How the values were obtained:
[1] = Binding affinity to oxidoreductase 1 (unknown origin) at 1 mM by HSQC-NMR analysis
[2] = Binding affinity to oxidoreductase 1 (unknown origin) by STD-NMR analysis
[3] = target: T1, SPRY domain-containing SOCS box protein 2 (Homo sapiens) (UniProt Q99619); experiment: Binding affinity to SPSB2 (unknown origin) at 3mM by 19F NMR method
T1 sequence (whole entry): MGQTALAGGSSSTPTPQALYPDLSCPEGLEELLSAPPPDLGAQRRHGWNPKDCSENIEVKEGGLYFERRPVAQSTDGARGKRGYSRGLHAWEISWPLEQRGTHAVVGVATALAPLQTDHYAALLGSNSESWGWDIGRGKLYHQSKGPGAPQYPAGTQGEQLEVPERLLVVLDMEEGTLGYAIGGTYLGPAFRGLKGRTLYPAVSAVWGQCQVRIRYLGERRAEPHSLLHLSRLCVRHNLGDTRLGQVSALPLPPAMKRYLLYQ

[4] = Binding affinity to oxidoreductase 1 (unknown origin) at 1.5 mM by HSQC-NMR analysis

Row | Activity [1] | Activity [2] | Activity [3] | Activity [4] | Structure (SMILES)
1 | Active | – | – | – | COc1ccc(-c2nc(N)sc2C)cc1
2 | Active | Active | Active | – | Nc1nc(-c2ccccc2)cs1
3 | – | – | – | Active | Nc1nc2cc3c(cc2s1)OCCO3
4 | Active | – | – | – | Cc1sc(N)nc1-c1ccccc1
